# From patent publication US11484539B2, “Compounds and their uses for alleviating menopause-associated symptoms” (Estetra SPRL, priority 2018, dated 2022)
# Test system: post-menopausal women
# Test: Hot Flush Weekly Weighted Score, dose-finding study
# Type: in vivo
# Description: Further, the terms “Hot Flush Weekly Weighted Score”, as used herein, corresponds to a score taking into account frequency and severity which is calculated by using the severity score (as calculated above): [(1× No. of mild VMS)+(2× No. of moderate VMS)+(3× No. of severe VMS)] during a 7 day period.
# Such a weighted score was for example used by Notelovitz et al. (“Initial 17β-Estradiol Dose for Treating Vasomotor Symptoms”; Obstetrics and Gynaecology, Vol. 95(5), May 2000, p. 726-731). This score was used to generate the data included in Example 1 further below, under section A. c) “Hot Flush Weekly Weighted Score”.
smiles,measurement,setting,value
"C[C@]12CC[C@@H]3c4ccc(O)cc4CC[C@H]3[C@@H]1[C@@H](O)[C@@H](O)[C@@H]2O [E4, 1,3,5 (10)-estratrien-3,15alpha,16alpha,17beta-tetrol]",LS adjusted mean change from baseline in Hot Flush Weekly Weighted Score,"2.5 mg E4, week 4",−75.37
same,LS adjusted mean change from baseline in Hot Flush Weekly Weighted Score,"2.5 mg E4, week 12",−89.86
same,Mean change from baseline in Hot Flush Weekly Weighted Score,"2.5 mg E4 QD per os, week 0",2.4151
same,Mean change from baseline in Hot Flush Weekly Weighted Score,"2.5 mg E4 QD per os, week 1",−40.805
same,"Relative change (% from baseline) in Hot Flush Weekly Weighted Score, mean","2.5 mg E4 QD per os, week 1",−22%
same,Mean change from baseline in Hot Flush Weekly Weighted Score,"2.5 mg E4 QD per os, week 2",−58.6163
same,"Relative change (% from baseline) in Hot Flush Weekly Weighted Score, mean","2.5 mg E4 QD per os, week 2",−32%
same,Mean change from baseline in Hot Flush Weekly Weighted Score,"2.5 mg E4 QD per os, week 3",−74.8798
same,"Relative change (% from baseline) in Hot Flush Weekly Weighted Score, mean","2.5 mg E4 QD per os, week 3",−43%
same,Mean change from baseline in Hot Flush Weekly Weighted Score,"2.5 mg E4 QD per os, week 4",−82.75
same,"Relative change (% from baseline) in Hot Flush Weekly Weighted Score, mean","2.5 mg E4 QD per os, week 4",−47%
same,Mean change from baseline in Hot Flush Weekly Weighted Score,"2.5 mg E4 QD per os, week 5",−84.6062
same,"Relative change (% from baseline) in Hot Flush Weekly Weighted Score, mean","2.5 mg E4 QD per os, week 5",−48%
same,Mean change from baseline in Hot Flush Weekly Weighted Score,"2.5 mg E4 QD per os, week 6",−89.9842
same,"Relative change (% from baseline) in Hot Flush Weekly Weighted Score, mean","2.5 mg E4 QD per os, week 6",−51%
same,Mean change from baseline in Hot Flush Weekly Weighted Score,"2.5 mg E4 QD per os, week 7",−94.2468
same,"Relative change (% from baseline) in Hot Flush Weekly Weighted Score, mean","2.5 mg E4 QD per os, week 7",−53%
same,Mean change from baseline in Hot Flush Weekly Weighted Score,"2.5 mg E4 QD per os, week 8",−97.1084
same,"Relative change (% from baseline) in Hot Flush Weekly Weighted Score, mean","2.5 mg E4 QD per os, week 8",−55%
same,Mean change from baseline in Hot Flush Weekly Weighted Score,"2.5 mg E4 QD per os, week 9",−101.429
same,"Relative change (% from baseline) in Hot Flush Weekly Weighted Score, mean","2.5 mg E4 QD per os, week 9",−57%
same,Mean change from baseline in Hot Flush Weekly Weighted Score,"2.5 mg E4 QD per os, week 10",−100.18
same,"Relative change (% from baseline) in Hot Flush Weekly Weighted Score, mean","2.5 mg E4 QD per os, week 10",−57%
same,Mean change from baseline in Hot Flush Weekly Weighted Score,"2.5 mg E4 QD per os, week 11",−97.6016
same,"Relative change (% from baseline) in Hot Flush Weekly Weighted Score, mean","2.5 mg E4 QD per os, week 11",−56%
same,Mean change from baseline in Hot Flush Weekly Weighted Score,"2.5 mg E4 QD per os, week 12",−98.5424
same,"Relative change (% from baseline) in Hot Flush Weekly Weighted Score, mean","2.5 mg E4 QD per os, week 12",−57%
same,"Difference with placebo, LS adjusted mean, absolute change in Hot Flush Weekly Weighted Score","2.5 mg E4 vs placebo, week 4",2.897
same,"Difference with placebo, LS adjusted mean, absolute change in Hot Flush Weekly Weighted Score","2.5 mg E4 vs placebo, week 12",14.83
same,"Differences with placebo, relative change in weekly weighted score, p_value","2.5 mg vs 0 mg, week 4",1.0000
same,"Differences with placebo, relative change in weekly weighted score, p_value","2.5 mg vs 0 mg, week 12",0.6744
same,"Relative change (% from baseline) in weekly weighted score, LS adjusted mean","2.5 mg, Week 12",−0.5795
same,"Relative change (% from baseline) in weekly weighted score, LS adjusted mean","2.5 mg, week 4",−0.474
same,LS adjusted mean change from baseline in Hot Flush Weekly Weighted Score,"5 mg E4, week 4",−66.88
same,LS adjusted mean change from baseline in Hot Flush Weekly Weighted Score,"5 mg E4, week 12",−95.92
same,Mean change from baseline in Hot Flush Weekly Weighted Score,"5 mg E4 QD per os, week 0",1.8297
same,Mean change from baseline in Hot Flush Weekly Weighted Score,"5 mg E4 QD per os, week 1",−33.7092
same,"Relative change (% from baseline) in Hot Flush Weekly Weighted Score, mean","5 mg E4 QD per os, week 1",−22%
same,Mean change from baseline in Hot Flush Weekly Weighted Score,"5 mg E4 QD per os, week 2",−49.1319
same,"Relative change (% from baseline) in Hot Flush Weekly Weighted Score, mean","5 mg E4 QD per os, week 2",−32%
same,Mean change from baseline in Hot Flush Weekly Weighted Score,"5 mg E4 QD per os, week 3",−56.9697
same,"Relative change (% from baseline) in Hot Flush Weekly Weighted Score, mean","5 mg E4 QD per os, week 3",−37%
same,Mean change from baseline in Hot Flush Weekly Weighted Score,"5 mg E4 QD per os, week 4",−64.8344
same,"Relative change (% from baseline) in Hot Flush Weekly Weighted Score, mean","5 mg E4 QD per os, week 4",−43%
same,Mean change from baseline in Hot Flush Weekly Weighted Score,"5 mg E4 QD per os, week 5",−71.6181
same,"Relative change (% from baseline) in Hot Flush Weekly Weighted Score, mean","5 mg E4 QD per os, week 5",−46%
same,Mean change from baseline in Hot Flush Weekly Weighted Score,"5 mg E4 QD per os, week 6",−88.2337
same,"Relative change (% from baseline) in Hot Flush Weekly Weighted Score, mean","5 mg E4 QD per os, week 6",−56%
same,Mean change from baseline in Hot Flush Weekly Weighted Score,"5 mg E4 QD per os, week 7",−88.2989
same,"Relative change (% from baseline) in Hot Flush Weekly Weighted Score, mean","5 mg E4 QD per os, week 7",−56%
same,Mean change from baseline in Hot Flush Weekly Weighted Score,"5 mg E4 QD per os, week 8",−89.2039
same,"Relative change (% from baseline) in Hot Flush Weekly Weighted Score, mean","5 mg E4 QD per os, week 8",−56%
same,Mean change from baseline in Hot Flush Weekly Weighted Score,"5 mg E4 QD per os, week 9",−90.923
same,"Relative change (% from baseline) in Hot Flush Weekly Weighted Score, mean","5 mg E4 QD per os, week 9",−58%
same,Mean change from baseline in Hot Flush Weekly Weighted Score,"5 mg E4 QD per os, week 10",−91.4798
same,"Relative change (% from baseline) in Hot Flush Weekly Weighted Score, mean","5 mg E4 QD per os, week 10",−59%
same,Mean change from baseline in Hot Flush Weekly Weighted Score,"5 mg E4 QD per os, week 11",−95.8365
same,"Relative change (% from baseline) in Hot Flush Weekly Weighted Score, mean","5 mg E4 QD per os, week 11",−61%
same,Mean change from baseline in Hot Flush Weekly Weighted Score,"5 mg E4 QD per os, week 12",−93.5117
same,"Relative change (% from baseline) in Hot Flush Weekly Weighted Score, mean","5 mg E4 QD per os, week 12",−60%
same,"Difference with placebo, LS adjusted mean, absolute change in Hot Flush Weekly Weighted Score","5 mg E4 vs placebo, week 4",11.39
same,"Difference with placebo, LS adjusted mean, absolute change in Hot Flush Weekly Weighted Score","5 mg E4 vs placebo, week 12",8.767
same,"Differences with placebo, relative change in weekly weighted score, p_value","5.0 mg vs 0 mg, week 4",0.8833
same,"Differences with placebo, relative change in weekly weighted score, p_value","5.0 mg vs 0 mg, week 12",0.8871
same,"Relative change (% from baseline) in weekly weighted score, LS adjusted mean","5 mg, Week 12",−0.5993
same,"Relative change (% from baseline) in weekly weighted score, LS adjusted mean","5 mg, week 4",−0.4262
same,LS adjusted mean change from baseline in Hot Flush Weekly Weighted Score,"10 mg E4, week 4",−85.56
same,LS adjusted mean change from baseline in Hot Flush Weekly Weighted Score,"10 mg E4, week 12",−109.8
same,Mean change from baseline in Hot Flush Weekly Weighted Score,"10 mg E4 QD per os, week 0",2.3773
same,Mean change from baseline in Hot Flush Weekly Weighted Score,"10 mg E4 QD per os, week 1",−31.4591
same,"Relative change (% from baseline) in Hot Flush Weekly Weighted Score, mean","10 mg E4 QD per os, week 1",−20%
same,Mean change from baseline in Hot Flush Weekly Weighted Score,"10 mg E4 QD per os, week 2",−54.0849
same,"Relative change (% from baseline) in Hot Flush Weekly Weighted Score, mean","10 mg E4 QD per os, week 2",−35%
same,Mean change from baseline in Hot Flush Weekly Weighted Score,"10 mg E4 QD per os, week 3",−73.5189
same,"Relative change (% from baseline) in Hot Flush Weekly Weighted Score, mean","10 mg E4 QD per os, week 3",−47%
same,Mean change from baseline in Hot Flush Weekly Weighted Score,"10 mg E4 QD per os, week 4",−87.2673
same,"Relative change (% from baseline) in Hot Flush Weekly Weighted Score, mean","10 mg E4 QD per os, week 4",−54%
same,Mean change from baseline in Hot Flush Weekly Weighted Score,"10 mg E4 QD per os, week 5",−93.4648
same,"Relative change (% from baseline) in Hot Flush Weekly Weighted Score, mean","10 mg E4 QD per os, week 5",−58%
same,Mean change from baseline in Hot Flush Weekly Weighted Score,"10 mg E4 QD per os, week 6",−101.646
same,"Relative change (% from baseline) in Hot Flush Weekly Weighted Score, mean","10 mg E4 QD per os, week 6",−64%
same,Mean change from baseline in Hot Flush Weekly Weighted Score,"10 mg E4 QD per os, week 7",−103.024
same,"Relative change (% from baseline) in Hot Flush Weekly Weighted Score, mean","10 mg E4 QD per os, week 7",−64%
same,Mean change from baseline in Hot Flush Weekly Weighted Score,"10 mg E4 QD per os, week 8",−104.835
same,"Relative change (% from baseline) in Hot Flush Weekly Weighted Score, mean","10 mg E4 QD per os, week 8",−66%
same,Mean change from baseline in Hot Flush Weekly Weighted Score,"10 mg E4 QD per os, week 9",−107.578
